Laboratory results reported in patent US5041567A, “Antibacterial monic acid derivatives” (Beecham Group plc, priority 1982, dated 1991).
Values after ≈ are worked out from the molar mass of the structure shown. Where two headings read alike, the source gives them in different places.

Legend:
M. suipneumoniae MS 16 = experiment: MIC against mycoplasma in vitro; format: cell-based; conditions: Mesomycoplasma hyopneumoniae, MS16, 144 h
[1] = test system: Ps. aeruginosa NCTC 10662; experiment: MIC against human bacteria in vitro; format: cell-based; conditions: Pseudomonas aeruginosa, NCTC10662; Ps. aeruginosa NCTC 10662; 5% chocolated horse blood agar, 18 hours; read-out: MIC
Staph. aureus Russell = experiment: MIC against human bacteria in vitro; format: cell-based; conditions: Staphylococcus aureus; Staph. aureus Russell; 5% chocolated horse blood agar, 18 hours; read-out: MIC
S. typhimurium S18 = experiment: MIC against veterinary bacteria in vitro; conditions: Salmonella enterica, TYPHIMURIUM, 18 h
Experimental: (§1) The activity of the compounds of the Examples against various veterinarily important bacteria, was assayed in vitro using two-fold serial dilutions in Diagnostic Sensitivity Test Agar inoculated with 10^4 organisms.

M. suipneumoniae NB12 = experiment: MIC against mycoplasma in vitro; format: cell-based; conditions: Mesomycoplasma hyopneumoniae
[2] = test system: Staph. aureus 152 (pen. sens); experiment: MIC against veterinary bacteria in vitro; conditions: Staphylococcus aureus, 18 h
Experimental: as §1

Bord. bronchiseptica B09 = experiment: MIC against veterinary bacteria in vitro; conditions: Bordetella bronchiseptica, B09, 18 h
Experimental: as §1

Strep. agalactiae SPA1 = experiment: MIC against veterinary bacteria in vitro; conditions: Streptococcus agalactiae, SPA1, 18 h
Experimental: as §1

Staph. aureus W2827 = experiment: MIC against human bacteria in vitro; format: cell-based; conditions: Staphylococcus aureus; Staph. aureus W2827; 5% chocolated horse blood agar, 18 hours; read-out: MIC
E. coli E1 = experiment: MIC against veterinary bacteria in vitro; conditions: Escherichia coli, E1, 18 h
Experimental: as §1

Bord. bronchiseptica B08 = experiment: MIC against veterinary bacteria in vitro; conditions: Bordetella bronchiseptica, B08, 18 h
Experimental: as §1

M. gallisepticum S6 = experiment: MIC against mycoplasma in vitro; format: cell-based; conditions: Mycoplasmoides gallisepticum
[3] = test system: Pasteurella multocida 1633; experiment: MIC against human bacteria in vitro; format: cell-based; conditions: Pasteurella multocida 1633; 5% chocolated horse blood agar, 18 hours; read-out: MIC
[4] = test system: M. suipneumoniae NCTC 10110; experiment: MIC against mycoplasma in vitro; format: cell-based; conditions: Mesomycoplasma hyopneumoniae, NCTC10110, 144 h
Sarcina lutea 8340 = experiment: MIC against human bacteria in vitro; format: cell-based; conditions: Micrococcus luteus; Sarcina lutea 8340; 5% chocolated horse blood agar, 18 hours; read-out: MIC
Staph. aureus Oxford = experiment: MIC against veterinary bacteria in vitro; conditions: Staphylococcus aureus, 18 h
Experimental: as §1

M. suipneumoniae JF 435 = experiment: MIC against mycoplasma in vitro; format: cell-based; conditions: Mesomycoplasma hyopneumoniae, JF435, 144 h
M. suipneumoniae TAM 6N = experiment: MIC against mycoplasma in vitro; format: cell-based; conditions: Mesomycoplasma hyopneumoniae, TAM6N, 144 h
[5] = test system: Haemophilus influenzae Wy21; experiment: MIC against human bacteria in vitro; format: cell-based
[6] = test system: M. bovigenitalium ATCC 14173; experiment: MIC against mycoplasma in vitro; format: cell-based; conditions: 144 h
Strep. spp. 64/848-C = experiment: MIC against human bacteria in vitro; format: cell-based; conditions: Strep. spp. 64/848-C; 5% chocolated horse blood agar, 18 hours; read-out: MIC
Past. multocida PA2 = experiment: MIC against veterinary bacteria in vitro; conditions: Pasteurella multocida, PA2, 18 h
Experimental: as §1

M. suipneumoniae HK(2) = experiment: MIC against mycoplasma in vitro; format: cell-based; conditions: Mesomycoplasma hyopneumoniae, 144 h
[7] = test system: M. suipneumoniae ATCC 25095; experiment: MIC against mycoplasma in vitro; format: cell-based; conditions: Mesomycoplasma hyopneumoniae, ATCC25095, 144 h
E. coli NCTC 10418 = experiment: MIC against veterinary bacteria in vitro; conditions: Escherichia coli, NCTC10418, 18 h
Experimental: as §1

[8] = test system: Erysipelothrix rhusiopathiae NCTC 8163; experiment: MIC against veterinary bacteria in vitro; conditions: Erysipelothrix rhusiopathiae, NCTC8163, 18 h
Experimental: as §1

M. pneumoniae ATCC 15492 = experiment: MIC against mycoplasma in vitro; format: cell-based; conditions: Mycoplasmoides pneumoniae, ATCC15492, 144 h
[9] = test system: Strep. suis (group D) SPS11; experiment: MIC against veterinary bacteria in vitro; conditions: Streptococcus suis, 18 h
Experimental: as §1

Strep. agalactiae 2788-B = experiment: MIC against human bacteria in vitro; format: cell-based; conditions: Streptococcus agalactiae; Strep. agalactiae 2788-B; 5% chocolated horse blood agar, 18 hours; read-out: MIC
S. dublin S7 = experiment: MIC against veterinary bacteria in vitro; conditions: Salmonella enterica, S7, 18 h
Experimental: as §1

E. coli ESS = experiment: MIC against human bacteria in vitro; format: cell-based; conditions: Escherichia coli; E. coli ESS; 5% chocolated horse blood agar, 18 hours; read-out: MIC
M. suipneumoniae UCD 1 = experiment: MIC against mycoplasma in vitro; format: cell-based; conditions: Mesomycoplasma hyopneumoniae, UCD1, 144 h
M. hyorhinis ATCC 23234 = experiment: MIC against mycoplasma in vitro; format: cell-based; conditions: Mesomycoplasma hyorhinis, ATCC23234, 144 h
[10] = Haemophilus influenzae Wy21, 5% chocolated horse blood agar, 18 hours, read-out: MIC

Row | SMILES | MIC [1] | MIC (Staph. aureus Russell) | MIC (S. typhimurium S18) | MIC [2] | MIC (Bord. bronchiseptica B09) | MIC (Strep. agalactiae SPA1) | MIC (Staph. aureus W2827) | MIC (E. coli E1) | MIC (Bord. bronchiseptica B08) | MIC [3] | MIC (Sarcina lutea 8340) | MIC (Staph. aureus Oxford) | MIC [6] | MIC (Strep. spp. 64/848-C) | MIC (Past. multocida PA2) | MIC (E. coli NCTC 10418) | MIC [8] | MIC [9] | MIC (Strep. agalactiae 2788-B) | MIC (S. dublin S7) | further results
1 | C/C(=C\c1ncc(-c2cccc([S+](C)[O-])c2)o1)C[C@@H]1OC[C@H](C[C@@H]2O[C@H]2[C@@H](C)[C@H](C)O)[C@@H](O)[C@H]1O (stereo partly drawn) [Example 25, 5-m-Methylsulphinylphenyl-2-(1-normon-2-yl)oxazole A] | > 128 µg/mL | 32 µg/mL (≈ 63.3 µM) | > 80 µg/mL | 10 µg/mL (≈ 19.8 µM) | 40 µg/mL (≈ 79.1 µM) | 2.5 µg/mL (≈ 4.94 µM) | 32 µg/mL (≈ 63.3 µM) | > 80 µg/mL | > 80 µg/mL | 16 µg/mL (≈ 31.6 µM) | 128 µg/mL (≈ 253 µM) | 20 µg/mL (≈ 39.6 µM) | 0.25 µg/mL (≈ 0.494 µM) | 4 µg/mL (≈ 7.91 µM) | 2.5 µg/mL (≈ 4.94 µM) | > 80 µg/mL | > 80 µg/mL | 20 µg/mL (≈ 39.6 µM) | 2 µg/mL (≈ 3.96 µM) | > 80 µg/mL | MIC (M. suipneumoniae MS 16): 0.25 µg/mL (≈ 0.494 µM); MIC (M. suipneumoniae NB12; NB12, 144 h): 0.25 µg/mL (≈ 0.494 µM); MIC (M. gallisepticum S6; S6, 144 h): 2.5 µg/mL (≈ 4.94 µM); MIC [4]: 1 µg/mL (≈ 1.98 µM); MIC (M. suipneumoniae JF 435; M. suipneumoniae JF 435, 6 days, 37° C., read-out: MIC): 0.5 µg/mL (≈ 0.989 µM); MIC (M. suipneumoniae TAM 6N): 1 µg/mL (≈ 1.98 µM); MIC [5, 10]: 2 µg/mL (≈ 3.96 µM); MIC (M. suipneumoniae HK(2)): 1 µg/mL (≈ 1.98 µM); MIC ([7]; M. suipneumoniae ATCC 25095, 6 days, 37° C., read-out: MIC): 0.5 µg/mL (≈ 0.989 µM); MIC (M. pneumoniae ATCC 15492): 2.5 µg/mL (≈ 4.94 µM); MIC (E. coli ESS): 4 µg/mL (≈ 7.91 µM); MIC (M. suipneumoniae UCD 1): 1 µg/mL (≈ 1.98 µM); MIC (M. hyorhinis ATCC 23234): 1 µg/mL (≈ 1.98 µM)
2 | C/C(=C\c1ncc(-c2ccccc2[N+](=O)[O-])o1)C[C@@H]1OC[C@H](C[C@@H]2O[C@H]2[C@@H](C)[C@H](C)O)[C@@H](O)[C@H]1O [Example 26, 5-o-Nitrophenyl-2-(1-normon-2-yl)oxazole A] | > 128 µg/mL | 4 µg/mL (≈ 8.19 µM) | > 80 µg/mL | 2.5 µg/mL (≈ 5.12 µM) | 20 µg/mL (≈ 40.9 µM) | 2.5 µg/mL (≈ 5.12 µM) | 4 µg/mL (≈ 8.19 µM) | > 80 µg/mL | 80 µg/mL (≈ 164 µM) | 16 µg/mL (≈ 32.8 µM) | > 128 µg/mL | 2.5 µg/mL (≈ 5.12 µM) | 0.25 µg/mL (≈ 0.512 µM) | 2 µg/mL (≈ 4.09 µM) | 5 µg/mL (≈ 10.2 µM) | > 80 µg/mL | > 80 µg/mL | 10 µg/mL (≈ 20.5 µM) | 2 µg/mL (≈ 4.09 µM) | > 80 µg/mL | MIC (M. suipneumoniae MS 16): 1 µg/mL (≈ 2.05 µM); MIC (M. suipneumoniae NB12; NB12, 144 h): 2.5 µg/mL (≈ 5.12 µM); MIC (M. gallisepticum S6; S6, 144 h): 2.5 µg/mL (≈ 5.12 µM); MIC ([4]; M. suipneumoniae NCTC 10110, 6 days, 37° C., read-out: MIC): 5 µg/mL (≈ 10.2 µM); MIC (M. suipneumoniae JF 435): 2.5 µg/mL (≈ 5.12 µM); MIC (M. suipneumoniae TAM 6N; M. suipneumoniae TAM 6N, 6 days, 37° C., read-out: MIC): 5 µg/mL (≈ 10.2 µM); MIC ([5]; Haemophilus influenzae, WY21, 18 h): 0.25 µg/mL (≈ 0.512 µM); MIC (M. suipneumoniae HK(2); M. suipneumoniae HK(2), 6 days, 37° C., read-out: MIC): 5 µg/mL (≈ 10.2 µM); MIC [7]: 2.5 µg/mL (≈ 5.12 µM); MIC (M. pneumoniae ATCC 15492): 2.5 µg/mL (≈ 5.12 µM); MIC (E. coli ESS): 8 µg/mL (≈ 16.4 µM); MIC (M. suipneumoniae UCD 1): 2.5 µg/mL (≈ 5.12 µM); MIC (M. hyorhinis ATCC 23234): 2.5 µg/mL (≈ 5.12 µM)
3 | C/C(=C\c1ncc(-c2ccc(S(=O)(=O)N(C)C)cc2)o1)C[C@@H]1OC[C@H](C[C@@H]2O[C@H]2[C@@H](C)[C@H](C)O)[C@@H](O)[C@H]1O [Example 24, 5-p-Dimethylaminosulphonylphenyl-2-(1-normon-2-yl)oxazole A] | > 64 µg/mL | 4 µg/mL (≈ 7.26 µM) | > 80 µg/mL | 0.625 µg/mL (≈ 1.13 µM) | 40 µg/mL (≈ 72.6 µM) | 1.25 µg/mL (≈ 2.27 µM) | 4 µg/mL (≈ 7.26 µM) | > 80 µg/mL | 80 µg/mL (≈ 145 µM) | 16 µg/mL (≈ 29.1 µM) | > 128 µg/mL | 1.25 µg/mL (≈ 2.27 µM) | 0.1 µg/mL (≈ 0.182 µM) | 4 µg/mL (≈ 7.26 µM) | 2.5 µg/mL (≈ 4.54 µM) | > 80 µg/mL | 40 µg/mL (≈ 72.6 µM) | 2.5 µg/mL (≈ 4.54 µM) | 2 µg/mL (≈ 3.63 µM) | > 80 µg/mL | MIC (M. suipneumoniae MS 16; M. suipneumoniae MS 16, 6 days, 37° C., read-out: MIC): 0.1 µg/mL (≈ 0.182 µM); MIC (M. suipneumoniae NB12; 144 h, M. suipneumoniae NB12, Friis broth, 0.9% agarose, 6 days, 37° C., read-out: MIC): 0.1 µg/mL (≈ 0.182 µM); MIC (M. gallisepticum S6; 144 h, M. gallisepticum S6, 6 days, 37° C., read-out: MIC): 0.5 µg/mL (≈ 0.908 µM); MIC [4]: 0.25 µg/mL (≈ 0.454 µM); MIC (M. suipneumoniae JF 435): 0.25 µg/mL (≈ 0.454 µM); MIC (M. suipneumoniae TAM 6N): 0.25 µg/mL (≈ 0.454 µM); MIC [5, 10]: 4 µg/mL (≈ 7.26 µM); MIC (M. suipneumoniae HK(2)): 0.25 µg/mL (≈ 0.454 µM); MIC [7]: 0.1 µg/mL (≈ 0.182 µM); MIC (M. pneumoniae ATCC 15492; M. pneumoniae ATCC 15492, 6 days, 37° C., read-out: MIC): 0.5 µg/mL (≈ 0.908 µM); MIC (E. coli ESS): 4 µg/mL (≈ 7.26 µM); MIC (M. suipneumoniae UCD 1): 0.25 µg/mL (≈ 0.454 µM); MIC (M. hyorhinis ATCC 23234): 0.1 µg/mL (≈ 0.182 µM)
